For the experiment, the target named is T1, Prolyl endopeptidase (Rattus norvegicus, UniProt O70196).
T1 sequence (O70196 whole entry): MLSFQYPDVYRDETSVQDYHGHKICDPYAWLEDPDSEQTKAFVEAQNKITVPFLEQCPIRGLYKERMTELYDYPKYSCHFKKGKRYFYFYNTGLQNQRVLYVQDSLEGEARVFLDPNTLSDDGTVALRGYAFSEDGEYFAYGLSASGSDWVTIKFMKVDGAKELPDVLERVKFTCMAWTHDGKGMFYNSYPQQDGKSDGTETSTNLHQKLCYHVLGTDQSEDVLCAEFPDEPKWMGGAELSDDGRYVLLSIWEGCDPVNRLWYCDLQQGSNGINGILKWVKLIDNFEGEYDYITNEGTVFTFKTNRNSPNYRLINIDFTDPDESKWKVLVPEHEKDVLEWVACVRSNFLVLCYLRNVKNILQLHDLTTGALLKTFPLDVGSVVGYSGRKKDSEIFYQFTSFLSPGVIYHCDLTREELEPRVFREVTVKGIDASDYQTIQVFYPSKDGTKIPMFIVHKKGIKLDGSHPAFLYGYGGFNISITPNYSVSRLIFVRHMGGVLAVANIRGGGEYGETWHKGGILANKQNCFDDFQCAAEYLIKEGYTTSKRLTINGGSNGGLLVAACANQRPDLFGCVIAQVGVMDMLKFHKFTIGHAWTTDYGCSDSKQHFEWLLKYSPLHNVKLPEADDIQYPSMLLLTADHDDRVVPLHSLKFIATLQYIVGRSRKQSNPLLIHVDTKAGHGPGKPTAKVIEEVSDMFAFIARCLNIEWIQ
In words: Inhibitory activity against rat brain Prolyl endopeptidase (PEP).
What is called IC50 is the midpoint of a concentration-inhibition curve. A higher IC50 goes with lower potency. In turn, `CCCCCCCCCCCCCCCC(=O)N1CSC[C@H]1C(=O)N1CCCC1` came in with an IC50 of 216 nM.

`CCCCC/C=C(\C)C(=O)N1CCC[C@H]1C(=O)N1CCCC1` showed an IC50 of 73 nM.

`CCCCC(=O)N1CSC[C@H]1C(=O)N1CCCC1` registered an IC50 of 37 nM. For `CCCCC/C=C/C(=O)N1CCC[C@H]1C(=O)N1CCCC1` the value was 34 nM; for `CCCCCCCCCCCCCC(=O)N1CSC[C@H]1C(=O)N1CCCC1`, 80 nM; for `CCCCCCCCCCC(=O)N1CSC[C@H]1C(=O)N1CCCC1`, 42 nM. For `CCCCCCCCC=CCCCCCCCC(=O)N1CSC[C@H]1C(=O)N1CCCC1` the value was 104 nM; for `CCCCCC(=O)N1CSC[C@H]1C(=O)N1CCCC1`, 37 nM; for `CCCC(=O)N1CSC[C@H]1C(=O)N1CCCC1`, 167 nM. For `CCCCCCCC(=O)N1CSC[C@H]1C(=O)N1CCCC1` the value was 11 nM. For the compound `CCCCCCCCCC(=O)N1CSC[C@H]1C(=O)N1CCCC1`, the IC50 was determined as 38 nM. `CCCCCCCCCCCC(=O)N1CSC[C@H]1C(=O)N1CCCC1` yielded an IC50 of 46 nM. With `CCCCCCC(=O)N1CSC[C@H]1C(=O)N1CCCC1`, half-maximal inhibition (IC50) was put at 17 nM. For `CCC/C=C/C=C(\C)C(=O)N1CCC[C@H]1C(=O)N1CCCC1` the value was 207 nM; for `CCCCCCCCCCCCCCCCCCCC(=O)N1CSC[C@H]1C(=O)N1CCCC1`, 1160 nM. For `CCCCCCCCCCCCCCCCCC(=O)N1CSC[C@H]1C(=O)N1CCCC1` the value was 904 nM; for `CCCCCCCCC(=O)N1CSC[C@H]1C(=O)N1CCCC1`, 38 nM.

(Values after ChEMBL document CHEMBL1130469, “Prolyl endopeptidase inhibitors1: N-acyl derivatives of L-thioproline-pyrrolidine” (Bioorg Med Chem Lett, 1997).)
